Test results as given in article PMC7747594, “Protease-activated receptor-2 ligands reveal orthosteric and allosteric mechanisms of receptor inhibition” (Communications Biology, 2020).
pEC50, pIC50, pKd: −log10 of the molar value. Where “and” joins values, the source holds several entries; their conditions need not be identical. Equal values may be shown once.

What was measured:
[1] = target: T1, PAR2 stabilised receptor (StaR) (Homo sapiens, UniProt P55085); details: SPR, previously reported; cited from earlier work
T1 sequence (P55085 55-377): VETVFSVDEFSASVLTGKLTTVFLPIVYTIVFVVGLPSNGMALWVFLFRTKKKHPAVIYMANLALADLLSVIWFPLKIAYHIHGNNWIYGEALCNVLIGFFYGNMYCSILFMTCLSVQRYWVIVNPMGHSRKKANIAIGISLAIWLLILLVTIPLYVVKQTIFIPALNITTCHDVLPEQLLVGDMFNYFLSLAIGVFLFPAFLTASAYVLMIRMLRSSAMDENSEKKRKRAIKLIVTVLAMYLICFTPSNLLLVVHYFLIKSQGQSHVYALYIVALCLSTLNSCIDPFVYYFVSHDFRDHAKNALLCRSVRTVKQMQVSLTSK

[2] = target: T2, hPAR2 (Homo sapiens, UniProt P55085); assay: pERK1/2 assay, agonist mode, U2OS-hPAR2 cells; type: cell-based; parameters: agonist response (Fig 2e), individual replicate values: unit not given here
T2 sequence (P55085 26-397): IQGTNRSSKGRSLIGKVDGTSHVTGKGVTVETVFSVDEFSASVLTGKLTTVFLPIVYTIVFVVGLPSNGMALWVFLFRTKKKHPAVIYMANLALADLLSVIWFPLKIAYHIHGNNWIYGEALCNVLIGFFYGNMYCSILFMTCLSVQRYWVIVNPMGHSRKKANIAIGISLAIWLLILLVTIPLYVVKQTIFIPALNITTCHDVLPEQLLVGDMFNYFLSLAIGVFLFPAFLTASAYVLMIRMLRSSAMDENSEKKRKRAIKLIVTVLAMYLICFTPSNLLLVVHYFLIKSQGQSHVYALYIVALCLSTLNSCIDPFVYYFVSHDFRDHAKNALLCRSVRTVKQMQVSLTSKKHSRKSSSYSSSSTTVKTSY

[3] = target: T3, PAR4 (F2RL3) (Homo sapiens, UniProt Q96RI0); assay: β-arrestin recruitment, DiscoverX profiling service, PAR4; type: cell-based
T3 sequence (Q96RI0 18-385): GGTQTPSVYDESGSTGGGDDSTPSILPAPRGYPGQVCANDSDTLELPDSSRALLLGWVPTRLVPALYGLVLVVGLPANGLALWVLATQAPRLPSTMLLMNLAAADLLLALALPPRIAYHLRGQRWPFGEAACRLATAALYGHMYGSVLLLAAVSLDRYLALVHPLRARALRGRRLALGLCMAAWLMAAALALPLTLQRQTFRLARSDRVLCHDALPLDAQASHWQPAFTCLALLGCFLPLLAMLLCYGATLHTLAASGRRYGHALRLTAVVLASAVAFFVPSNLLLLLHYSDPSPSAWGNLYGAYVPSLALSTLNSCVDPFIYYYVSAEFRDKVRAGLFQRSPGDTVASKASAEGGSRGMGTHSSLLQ

[4] = tested on: parental 1321N1 cells; assay: Ca^2+ flux assay, agonist mode, parental 1321N1 cells; type: cell-based; parameters: Ca2+ response (Fig 2c), individual replicate values: unit not given here; details: for Ca2+ response (Fig 2c), individual replicate values: control
Description: Cells were loaded with Fluo-8 NW calcium dye (AAT Bioquest) for 30 min at 37 °C before compounds in Hank’s balanced salt solution (HBSS, ThermoFisher Scientific) with 20 mM HEPES (ThermoFisher Scientific), 0.1% bovine serum albumin (BSA, Sigma) and 0.5% DMSO were added and simultaneously evaluated for changes in intracellular [Ca^2+] using FLIPR TETRA (Molecular Devices) to detect agonism. For each concentration, the difference between the maximum peak Ca^2+ response and baseline response is reported. […] Antagonism experiments were also carried out on 1321N1-PAR2[WT], 1321N1-PAR2[F154A], and 1321N1-PAR2[G157C] as described. Experiments with trypsin in 1321N1-hPAR2 cells were performed in the presence of 1 µM Vorapaxar (Chemtronica) to remove any interference of PAR1 activity. […] Antagonism experiments for CHO-hPAR2 and HT-29 cells were performed in 96-well plates at 30,000 cells/well. Cells were loaded with Fluo-3 AM calcium dye (Sigma-Aldrich) for 60 min at 37 °C in HBSS with 1% FBS, 0.2% pluronic acid, 20 mM HEPES and 2.5 mM probenecid prior to the addition of antagonist. The antagonist was pre-incubated for 60 min at 37 °C followed by the addition of bovine trypsin (30 nM) at EC80. Intracellular [Ca^2+] flux was measured using FLIPR TETRA (Molecular Devices) and the difference between the maximum peak Ca^2+ response and baseline response is reported.

[5] = target: T4, PAR2 (F2RL1) (Homo sapiens, UniProt P55085); assay: β-arrestin recruitment, DiscoverX profiling service, PAR2; type: cell-based; details: for Max Response: in % (unit assumed)
T4 sequence (P55085 26-397): T2 sequence (P55085 26-397)

[6] = target: T2, hPAR2; assay: β-arrestin-2 recruitment, agonist mode, U2OS-hPAR2 cells; type: cell-based; parameters: agonist response (Fig 2f), individual replicate values: unit not given here
[7] = target: T1, PAR2 stabilised receptor (StaR); assay: Surface plasmon resonance (SPR) binding, single-cycle kinetics; details: n of 2, earlier manuscript version quoted by reviewer

CCCc1cc(F)ccc1C(O)c1ncc[nH]1 (stereo not drawn) [AZ8838]
residence time [1]: about 84 min

CNC(=O)[C@H]1CC[C@@H](NC(=O)[C@H](CC2CCCCC2)NC(=O)c2cn(Cc3ccccc3)nn2)c2ccccc21 [AZ2429]
EC50 ([2]; U2OS-hPAR2, mean ± s.e.m., read-out: pERK1/2 pEC50 (converted)): 39.8 nM
agonist response (Fig 2e), individual replicate values ([2]; [compound],M -4.52288): 92.0141 and 74.7053 and 111.675 and 66.5866 and 60.3473 and 74.0471 and 117.965 and 130.52 and 124.805 and 98.7887 and 171.327 and 138.91
agonist response (Fig 2e), individual replicate values ([2]; [compound],M -5): 145.403 and 95.3612 and 122.434 and 53.1755 and 72.071 and 69.3732 and 123.833 and 115.408 and 143.854 and 198.596 and 120.076 and 126.959
agonist response (Fig 2e), individual replicate values ([2]; [compound],M -5.47712): 102.451 and 94.8209 and 99.914 and 62.5677 and 62.1847 and 84.7772 and 121.954 and 124.064 and 131.389 and 108.103 and 101.197 and 120.75
agonist response (Fig 2e), individual replicate values ([2]; [compound],M -5.95424): 89.9122 and 82.9611 and 84.3447 and 63.5614 and 54.0303 and 47.0028 and 93.3928 and 116.239 and 97.5862 and 98.4234 and 105.569 and 117.075
agonist response (Fig 2e), individual replicate values ([2]; [compound],M -6.43136): 89.3258 and 69.9482 and 44.5682 and 54.9685 and 62.0293 and 44.3162 and 80.2501 and 88.0999 and 54.8467 and 72.3986 and 88.607 and 61.7832
agonist response (Fig 2e), individual replicate values ([2]; [compound],M -6.90849): 70.3304 and 41.0432 and 36.2531 and 47.5801 and 30.25 and 29.0399 and 34.5189 and 34.3783 and 18.7041 and 36.9798 and 32.4711 and 22.2209
agonist response (Fig 2e), individual replicate values ([2]; [compound],M -7.38561): 20.4269 and 21.9818 and 16.3418 and 12.8089 and 11.7486 and 24.5769 and 9.704 and 15.3673 and 6.674 and 12.0051 and 3.09 and 15.3723
agonist response (Fig 2e), individual replicate values ([2]; [compound],M -7.86273): 4.95 and -1.995 and 15.7225 and 4.505 and 8.124 and 3.783 and 3.311 and 7.198 and -0.6009 and -4.9 and 2.6 and 2.634
agonist response (Fig 2e), individual replicate values ([2]; [compound],M -8.33985): 2.5581 and 8.989 and 6.59 and 1.141
Max Response ([3]; Arrestin, Agonist format, F2RL3): 3.8%
pEC50 ([3]; Arrestin, Agonist format, F2RL3, read-out: RC50 (EC50)): < 4.30
Max Response ([3]; Arrestin, Antagonist format, F2RL3): 2.3%
pIC50 ([3]; Arrestin, Antagonist format, F2RL3, read-out: RC50 (IC50)): < 4.30
activity against PAR4 in β-arrestin-2 recruitment assay ([3]; DiscoverX profiling service): No AZ2429 activity was detected
Ca^2+ mobilisation in parental 1321N1 cells [4]: No Ca^2+ mobilisation could be detected
Ca2+ response (Fig 2c), individual replicate values ([4]; [compound],M -4.30103): -0.222 and -3.029 and 1.6687 and -8.186
Ca2+ response (Fig 2c), individual replicate values ([4]; [compound],M -4.77815): -2.571 and -2.17 and -0.3366 and -1.253
Ca2+ response (Fig 2c), individual replicate values ([4]; [compound],M -5.25527): 2.7 and 1.783 and -0.795 and 0.5801
Ca2+ response (Fig 2c), individual replicate values ([4]; [compound],M -5.73239): 1.6114 and 0.4655 and 2.528 and 1.21
Ca2+ response (Fig 2c), individual replicate values ([4]; [compound],M -6.20952): -1.884 and -0.222 and -1.998 and 1.6114
Ca2+ response (Fig 2c), individual replicate values ([4]; [compound],M -6.68664): 5.507 and 2.986 and 0.6947 and 2.299
Ca2+ response (Fig 2c), individual replicate values ([4]; [compound],M -7.16376): 5.851 and 0.8093 and -0.4512 and 3.674
Ca2+ response (Fig 2c), individual replicate values ([4]; [compound],M -7.64088): -0.2793 and 2.6427 and 2.471 and 0.06446
Ca2+ response (Fig 2c), individual replicate values ([4]; [compound],M -8.118): -2.571 and 1.726 and 3.502 and 0.5801
Ca2+ response (Fig 2c), individual replicate values ([4]; [compound],M -8.59512): -3.717 and -6.009 and -11.1079 and -4.175
Curve Bottom ([5]; Agonist format): -2
Curve Top ([5]; Agonist format): 103.3
Hill ([5]; Agonist format): 1.29
Max Response ([5]; Agonist format): 104.3
pEC50 ([5]; Agonist format, read-out: RC50 (EC50)): 7.60
Max Response ([5]; Antagonist format): 4.5
pIC50 ([5]; Antagonist format, read-out: RC50 (IC50)): < 4.30
EC50 ([6]; U2OS-hPAR2, mean ± s.e.m., read-out: β-arrestin pEC50 (converted)): 251 nM
agonist response (Fig 2f), individual replicate values ([6]; [compound],M -4.52288): 136.003 and 128.564 and 133.913 and 56.5764 and 110.418 and 80.4631 and 65.432 and 80.8727 and 70.3477 and 91.7141 and 102.077 and 89.1574
agonist response (Fig 2f), individual replicate values ([6]; [compound],M -5): 131.19 and 120.248 and 136.172 and 56.4288 and 102.534 and 68.8992 and 68.7979 and 70.6147 and 68.8215 and 77.979 and 96.7821 and 92.1516
agonist response (Fig 2f), individual replicate values ([6]; [compound],M -5.47712): 112.303 and 119.541 and 118.68 and 44.4899 and 108.952 and 63.9568 and 68.1752 and 70.9487 and 60.988 and 94.267 and 96.9331 and 92.4234
agonist response (Fig 2f), individual replicate values ([6]; [compound],M -5.95424): 118.57 and 119.322 and 126.112 and 66.9594 and 124.296 and 94.3698 and 67.5375 and 74.2944 and 72.0498 and 104.83 and 109.824 and 109.97
agonist response (Fig 2f), individual replicate values ([6]; [compound],M -6.43136): 125.477 and 105.411 and 104.73 and 109.603 and 104.761 and 111.037 and 54.7204 and 64.3421 and 52.5276 and 82.0218 and 82.1308 and 78.7213
agonist response (Fig 2f), individual replicate values ([6]; [compound],M -6.90849): 100.424 and 92.4091 and 99.838 and 93.2711 and 86.5209 and 104.138 and 29.1218 and 35.2385 and 27.4797 and 47.1154 and 56.0608 and 47.0166
agonist response (Fig 2f), individual replicate values ([6]; [compound],M -7.38561): 86.365 and 78.1735 and 66.0975 and 85.2162 and 75.5111 and 91.061 and 20.8827 and 22.73 and 14.0732 and 38.9752 and 29.9961 and 25.8403
agonist response (Fig 2f), individual replicate values ([6]; [compound],M -7.86273): 50.0191 and 38.4004 and 28.0445 and 63.4341 and 52.1546 and 58.7101 and 8.067 and 10.1642 and 0.7234 and 8.708 and 10.6741 and 5.686
agonist response (Fig 2f), individual replicate values ([6]; [compound],M -8.33985): 11.2254 and 10.5953 and 6.644 and 26.1895

C[C@@H](C1CCCCC1)n1c(-c2cc3c(cc2Br)OCO3)nc2cc(C(=O)Nc3ccc(C#N)cc3)ccc21 [AZ3451]
pKd [7]: 7.85
